Converted amounts (≈) assume the structure as drawn. Where two headings read alike, the source gives them in different places.
Assays:
[1] = Acute toxicity test (intravenous LD50); settings: mouse, in vivo, mice (ICR strain, male, 18-24 g)
Description: The LD50 values of the representative compounds of this invention when administered intravenously to mice (ICR strain, male, 18-24 g) are shown in Table 2.

Aci. antitratus A-6 = assay: Antibacterial activity (MIC), agar dilution; type: cell-based; settings: 20 h, Aci. antitratus A-6; 10^6 cells per ml; 37° C., 20 hours; read-out: MIC
Description: (§1) The amount of bacteria inoculated was 10^4 cells per plate (10^6 cells per ml).

E. coli NIHJ JC-2 = assay: Antibacterial activity (MIC), agar dilution; type: cell-based; settings: Escherichia coli, NIHJJC2, 20 h
Description: as §1

E. coli TK-111 = assay: Antibacterial activity (MIC), agar dilution; type: cell-based; settings: Escherichia coli, TK111, 20 h, E. coli TK-111; 10^6 cells per ml; 37° C., 20 hours; read-out: MIC
Description: as §1

Ent. cloacae IID977 = assay: Antibacterial activity (MIC), agar dilution; type: cell-based; settings: Enterobacter cloacae, IID977, 20 h
Description: as §1

Kl. pneumoniae Y-41 = assay: Antibacterial activity (MIC), agar dilution; type: cell-based; settings: Klebsiella pneumoniae, Y41, 10^6 cells per ml, 37° C., 20 hours, read-out: MIC
Description: as §1

Kl. pneumoniae Y-50 = assay: Antibacterial activity (MIC), agar dilution; type: cell-based; settings: Klebsiella pneumoniae, Y50, 20 h, 10^6 cells per ml, 37° C., read-out: MIC
Description: as §1

Pro. mirabilis T-111 = assay: Antibacterial activity (MIC), agar dilution; type: cell-based; settings: Proteus mirabilis, T111, 20 h, 10^6 cells per ml, 37° C.
Description: as §1

Pro. morganii T-216 = assay: Antibacterial activity (MIC), agar dilution; type: cell-based; settings: Morganella morganii, 37° C.
Description: as §1

Pro. vulgaris GN3027 = assay: Antibacterial activity (MIC), agar dilution; type: cell-based; settings: Proteus vulgaris, GN3027, 20 h, Pro. vulgaris GN3027; 10^6 cells per ml; 37° C., 20 hours; read-out: MIC
Description: as §1

Ps. aeruginosa IFO3445 = assay: Antibacterial activity (MIC), agar dilution; type: cell-based; settings: Pseudomonas aeruginosa
Description: as §1

Ps. aeruginosa S-68 = assay: Antibacterial activity (MIC), agar dilution; type: cell-based; settings: Pseudomonas aeruginosa
Description: as §1

St. aureus FDA209P = assay: Antibacterial activity (MIC), agar dilution; type: cell-based; settings: Staphylococcus aureus, FDA209P, 20 h
Description: as §1

E. coli TK-3* = assay: Antibacterial activity (MIC), agar dilution; type: cell-based; settings: Escherichia coli, 20 h, E. coli TK-3, penicillinase-producing; 10^6 cells per ml; read-out: MIC
Description: as §1
(§2) * Penicillinase-producing bacteria

Kl. pneumoniae Y-4* = assay: Antibacterial activity (MIC), agar dilution; type: cell-based; settings: Klebsiella pneumoniae, 20 h, Kl. pneumoniae Y-4, penicillinase-producing; 10^6 cells per ml; read-out: MIC
Description: as §1, §2

Ps. aeruginosa GN3379* = assay: Antibacterial activity (MIC), agar dilution; type: cell-based; settings: Pseudomonas aeruginosa, 20 h; Ps. aeruginosa GN3379, penicillinase-producing; 10^6 cells per ml; read-out: MIC
Description: as §1, §2

St. aureus F-137* = assay: Antibacterial activity (MIC), agar dilution; type: cell-based; settings: Staphylococcus aureus, 20 h
Description: as §1, §2

E. coli GN5482** = assay: Antibacterial activity (MIC), agar dilution; type: cell-based; settings: Escherichia coli, 20 h; E. coli GN5482, cephalospolinase-producing; 10^6 cells per ml; read-out: MIC
Description: as §1
(§3) ** Cephalospolinase-producing bacteria

Pro. vulgaris GN76** = assay: Antibacterial activity (MIC), agar dilution; type: cell-based; settings: Proteus vulgaris
Description: as §1, §3

Ps. aeruginosa GN918** = assay: Antibacterial activity (MIC), agar dilution; type: cell-based; settings: Pseudomonas aeruginosa, 20 h; Ps. aeruginosa GN918, cephalospolinase-producing; 10^6 cells per ml; read-out: MIC
Description: as §1, §3

SMILES: O=C(O)c1cn(-c2ccc(F)cc2)c(-c2ccc(NCCO)cc2)cc1=O [drawing 219]
- LD50 [1]: > 200 mg/kg

SMILES: O=C(O)c1cn(-c2ccc(F)cc2)c(C=Cc2cccnc2)cc1=O [drawing 215]
- LD50 [1]: > 200 mg/kg

SMILES: Cc1cc(O)ccc1-n1cc(C(=O)O)c(=O)cc1C1CCCCC1 [drawing 221]
- LD50 [1]: > 200 mg/kg

SMILES: CN(C)c1ccc(-c2cc(=O)c(C(=O)O)cn2-c2ccc(O)cc2)cc1 [drawing 217]
- LD50 [1]: > 200 mg/kg

SMILES: Cc1nc(-c2ccc(-c3cc(=O)c(C(=O)O)cn3-c3ccc(O)cc3C)cc2)co1
- MIC (Aci. antitratus A-6): 0.39 µg/mL (≈ 0.969 µM)
- MIC (E. coli NIHJ JC-2; E. coli NIHJ JC-2, 10^6 cells per ml, 37° C., 20 hours, read-out: MIC): 0.1 µg/mL (≈ 0.249 µM)
- MIC (E. coli TK-111): ≤ 0.05 µg/mL
- MIC (Ent. cloacae IID977; Ent. cloacae IID977, 10^6 cells per ml, 37° C., 20 hours, read-out: MIC): 0.39 µg/mL (≈ 0.969 µM)
- MIC (Kl. pneumoniae Y-41): 1.56 µg/mL (≈ 3.88 µM)
- MIC (Kl. pneumoniae Y-50): 0.2 µg/mL (≈ 0.497 µM)
- MIC (Pro. mirabilis T-111): 1.56 µg/mL (≈ 3.88 µM)
- MIC (Pro. morganii T-216; T216, 20 h, 10^6 cells per ml): 3.13 µg/mL (≈ 7.78 µM)
- MIC (Pro. vulgaris GN3027): 0.39 µg/mL (≈ 0.969 µM)
- MIC (Ps. aeruginosa IFO3445; IFO3445, 20 h): 3.13 µg/mL (≈ 7.78 µM)
- MIC (Ps. aeruginosa S-68; S68, 20 h): 3.13 µg/mL (≈ 7.78 µM)
- MIC (St. aureus FDA209P; St. aureus FDA209P, 10^6 cells per ml, 37° C., 20 hours, read-out: MIC): 0.1 µg/mL (≈ 0.249 µM)
- MIC (E. coli TK-3*): 0.2 µg/mL (≈ 0.497 µM)
- MIC (Kl. pneumoniae Y-4*): 3.13 µg/mL (≈ 7.78 µM)
- MIC (Ps. aeruginosa GN3379*): 6.25 µg/mL (≈ 15.5 µM)
- MIC (St. aureus F-137*; St. aureus F-137, penicillinase-producing, 10^6 cells per ml, read-out: MIC): 0.1 µg/mL (≈ 0.249 µM)
- MIC (E. coli GN5482**): ≤ 0.05 µg/mL
- MIC (Pro. vulgaris GN76**; 20 h, Pro. vulgaris GN76, cephalospolinase-producing, 10^6 cells per ml, read-out: MIC): 0.78 µg/mL (≈ 1.94 µM)
- MIC (Ps. aeruginosa GN918**): 0.78 µg/mL (≈ 1.94 µM)

SMILES: O=C(O)c1cn(-c2ccc(F)cc2)c(-c2ccc(Cl)s2)cc1=O
- MIC (Aci. antitratus A-6): 1.56 µg/mL (≈ 4.46 µM)
- MIC (E. coli NIHJ JC-2): 3.13 µg/mL (≈ 8.95 µM)
- MIC (E. coli TK-111): 1.56 µg/mL (≈ 4.46 µM)
- MIC (Ent. cloacae IID977): 12.5 µg/mL (≈ 35.7 µM)
- MIC (Kl. pneumoniae Y-41): 12.5 µg/mL (≈ 35.7 µM)
- MIC (Kl. pneumoniae Y-50): 3.13 µg/mL (≈ 8.95 µM)
- MIC (Pro. mirabilis T-111): 12.5 µg/mL (≈ 35.7 µM)
- MIC (Pro. morganii T-216; T216, 10^6 cells per ml, 20 hours, read-out: MIC): 6.25 µg/mL (≈ 17.9 µM)
- MIC (Pro. vulgaris GN3027): 0.39 µg/mL (≈ 1.12 µM)
- MIC (Ps. aeruginosa IFO3445; Ps. aeruginosa IFO3445, 10^6 cells per ml, 37° C., 20 hours, read-out: MIC): 50 µg/mL (≈ 143 µM)
- MIC (Ps. aeruginosa S-68; S68, Ps. aeruginosa S-68, 10^6 cells per ml, 37° C., 20 hours, read-out: MIC): 25 µg/mL (≈ 71.5 µM)
- MIC (St. aureus FDA209P): 3.13 µg/mL (≈ 8.95 µM)
- MIC (E. coli TK-3*): 6.25 µg/mL (≈ 17.9 µM)
- MIC (Kl. pneumoniae Y-4*): 25 µg/mL (≈ 71.5 µM)
- MIC (Ps. aeruginosa GN3379*): 25 µg/mL (≈ 71.5 µM)
- MIC (St. aureus F-137*): 3.13 µg/mL (≈ 8.95 µM)
- MIC (E. coli GN5482**): 0.39 µg/mL (≈ 1.12 µM)
- MIC (Pro. vulgaris GN76**; GN76, 20 h): 3.13 µg/mL (≈ 8.95 µM)
- MIC (Ps. aeruginosa GN918**): 100 µg/mL (≈ 286 µM)
